Measured values reported in PubChem BioAssay (NCI).
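Where inhibition never reached the appropriate level, the endpoint shown equals the highest concentration tested. Otherwise, values were interpolated linearly from a five-concentration, 48-hour dose response in 96-well plates. The concentration for 50% growth inhibition is given as GI50. At the TGI there is no net growth.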

Assays:
Experiment in all cases: growth of human tumour cells (NCI), 48 h
U251 CNS = tested on: U251 CNS
SF-268 CNS = tested on: SF-268 CNS
SR leukemia = tested on: SR leukemia
SNB-75 CNS = tested on: SNB-75 CNS
NCI-H226 lung = tested on: NCI-H226 lung
HCC-2998 colon = tested on: HCC-2998 colon
CAKI-1 renal = tested on: CAKI-1 renal
MDA-MB-435 = tested on: MDA-MB-435
SW-620 colon = tested on: SW-620 colon
HS 578T breast = tested on: HS 578T breast

| SMILES | GI50 (U251 CNS) | TGI (U251 CNS) | GI50 (SF-268 CNS) | TGI (SF-268 CNS) | GI50 (SR leukemia) | TGI (SR leukemia) | GI50 (SNB-75 CNS) | TGI (SNB-75 CNS) | GI50 (NCI-H226 lung) | TGI (NCI-H226 lung) | GI50 (HCC-2998 colon) | TGI (HCC-2998 colon) | GI50 (CAKI-1 renal) | TGI (CAKI-1 renal) | GI50 (MDA-MB-435) | TGI (MDA-MB-435) | GI50 (SW-620 colon) | TGI (SW-620 colon) | GI50 (HS 578T breast) | TGI (HS 578T breast) |
| --- | --- | --- | --- | --- | --- | --- | --- | --- | --- | --- | --- | --- | --- | --- | --- | --- | --- | --- | --- | --- |
| Nc1cc(C(F)F)c(-c2nc(N3[C@@H]4CC[C@H]3COC4)nc(N3[C@@H]4CC[C@H]3COC4)n2)cn1 | 0.501 µM | > 100 µM | 0.374 µM | > 100 µM | 0.191 µM | 21 µM | 0.06 µM | 0.793 µM | 0.244 µM | > 21.9 µM | 0.636 µM | > 100 µM | 0.188 µM | 3.21 µM | 0.378 µM | > 30.6 µM | 0.803 µM | > 100 µM | 0.18 µM | 0.908 µM |
| Cc1cc(NC(=O)CCc2ccc(N3C(N)=NC(N)=NC3(C)C)cc2)ccc1S(=O)(=O)F | 0.148 µM | > 100 µM | 0.524 µM | > 100 µM | > 100 µM | > 100 µM | 0.517 µM | 80.1 µM | 18.4 µM | > 100 µM | 0.709 µM | > 100 µM | – | > 100 µM | 0.18 µM | > 100 µM | 0.146 µM | > 100 µM | 28.3 µM | > 100 µM |
| COC(=O)c1c2c(c(C)[n+]([O-])c1C)C(=O)C(NCc1ccc(F)c(Cl)c1)=CC2=O | 2.53 µM | 13.8 µM | 2.64 µM | 13.2 µM | 2.5 µM | > 100 µM | 2.74 µM | 9.32 µM | 2.98 µM | 9.32 µM | 2.28 µM | 6.66 µM | 2.52 µM | 10.4 µM | 1.47 µM | 2.87 µM | 2.21 µM | 7.12 µM | 3.22 µM | 21.5 µM |
| COc1cc(/C=C2\C(=O)N(c3c(Cl)cccc3Cl)c3ccccc32)cc(OC)c1O | 0.315 µM | 13.5 µM | 0.413 µM | 14.6 µM | 0.0847 µM | – | 1.03 µM | 17 µM | 7.91 µM | 29 µM | 3.3 µM | 17.7 µM | 0.455 µM | 19.1 µM | 0.626 µM | 15.4 µM | 0.702 µM | 16.2 µM | 8.98 µM | > 27.8 µM |
| O=C(Oc1ccc([N+](=O)[O-])cc1)N1CCC(C(O)(c2ccc3c(c2)OCO3)c2ccc3c(c2)OCO3)CC1 | > 100 µM | > 100 µM | > 100 µM | > 100 µM | > 100 µM | > 100 µM | > 100 µM | > 100 µM | > 100 µM | > 100 µM | > 100 µM | > 100 µM | > 100 µM | > 100 µM | > 100 µM | > 100 µM | > 100 µM | > 100 µM | > 80.4 µM | > 100 µM |
| N#Cc1ccc(-n2cnc(NC(=O)[C@H]3CCN(C#N)C3)c2)cc1 | 3.29 µM | > 56.7 µM | 2.83 µM | 25.5 µM | 0.375 µM | > 100 µM | 0.519 µM | 3.74 µM | 2.51 µM | 9.85 µM | 2.28 µM | 18.6 µM | 2.48 µM | > 100 µM | 0.234 µM | 18.4 µM | 1.46 µM | 26.4 µM | 1.9 µM | 13.6 µM |
